Numbering of substitutions follows the chain as printed. Where “and” joins values, the source holds several entries; their conditions need not be identical. Equal entries are not always repeated.
What was measured:
[1] = molecular target: T1, cysteine-substituted TMC1 constructs (Mus musculus, UniProt Q8R4P5, D569C); experiment: Background current before and after MTSET treatment in Tmc1-knockout OHCs expressing cysteine-substituted TMC1; assay type: cell-based; details: Tmc1-knockout OHCs expressing TMC1-D569C, individual cells
T1 construct: control full-length TMC1 (TMC1_WT); expressed in transfected cells; host or cells: Tmc1-knockout mouse OHCs, injectoporation
T1 sequence (Q8R4P5 1-757 D569C): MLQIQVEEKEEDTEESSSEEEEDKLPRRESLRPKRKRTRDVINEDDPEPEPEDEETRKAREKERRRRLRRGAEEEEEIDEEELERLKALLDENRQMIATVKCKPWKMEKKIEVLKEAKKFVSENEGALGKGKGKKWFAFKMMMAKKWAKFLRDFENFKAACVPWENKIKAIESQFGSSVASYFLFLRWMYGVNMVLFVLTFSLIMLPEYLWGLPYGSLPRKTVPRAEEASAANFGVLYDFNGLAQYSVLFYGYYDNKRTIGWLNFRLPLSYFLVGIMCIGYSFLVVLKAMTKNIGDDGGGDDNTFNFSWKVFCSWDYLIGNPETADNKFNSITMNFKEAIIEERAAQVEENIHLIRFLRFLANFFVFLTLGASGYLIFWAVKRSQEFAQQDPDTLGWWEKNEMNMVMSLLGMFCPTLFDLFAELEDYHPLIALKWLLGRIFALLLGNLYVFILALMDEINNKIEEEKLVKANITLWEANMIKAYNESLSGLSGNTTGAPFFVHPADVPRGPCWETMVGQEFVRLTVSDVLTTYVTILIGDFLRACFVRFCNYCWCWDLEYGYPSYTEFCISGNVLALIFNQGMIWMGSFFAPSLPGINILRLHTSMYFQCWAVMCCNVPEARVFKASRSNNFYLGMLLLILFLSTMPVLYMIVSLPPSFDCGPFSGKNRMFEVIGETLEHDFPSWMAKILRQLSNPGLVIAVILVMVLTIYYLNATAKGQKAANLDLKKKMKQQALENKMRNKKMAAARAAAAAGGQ
Procedure: (§1) Mouse Tmc1 and Tmc2 cDNAs were cloned into CMV-Script and pCDNA3.1- vectors, respectively. To obtain the Tmc1-deafness vector and amino-acid-substituted Tmc1 constructs, specific primers were designed and used for PCR (Supplementary File 1). […] In brief, the organ of Corti was isolated from P3 mice and cut into three pieces in Dulbecco’s modified Eagle’s medium/F12 with 1.5 μg/ml ampicillin. For electroporation, a glass pipette (2 μm tip diameter) was used to deliver cDNA plasmids (0.2 μg/μl in 1 × Hanks' balanced salt solution) to hair cells in the sensory epithelium. EGFP was used as an indicator for the selection of transfected hair cells. A series of three pulses at 60 V lasting 15 ms at 1 s intervals was applied to cochlear tissues by an electroporator (ECM Gemini X2, BTX, CA). The cochlear tissues were cultured for 1 day in vitro and then used for electrophysiological recording.
(§2) All experiments were performed at room temperature (20–25°C). Briefly, the basilar membrane with hair cells was acutely dissected from neonatal mice. […] The acutely isolated or cultured basilar membrane was used for electrophysiological recording within 1 h. […] Hair cells were recorded with a patch-clamp amplifier (EPC 10 USB and Patchmaster software, HEKA Elektronik, Lambrecht/Pfalz, Germany).
(§3) The sampling rate was 1 kHz for leak current recording, 50 kHz for the IV protocol and current-clamp recording, and 100 kHz for unitary channel recording. The voltage-clamp used a –70 mV holding potential, and the current-clamp was held at 0 pA. Only recordings with a current baseline <20 pA in NMDG solution were used for statistical analysis.

[2] = molecular target: T2, cysteine-substituted TMC1 constructs (Mus musculus, UniProt Q8R4P5, G411C); experiment: as above; assay type: cell-based; details: Tmc1-knockout OHCs expressing TMC1-G411C, individual cells
T2 construct: control full-length TMC1 (TMC1_WT); expressed in transfected cells; host or cells: Tmc1-knockout mouse OHCs, injectoporation
T2 sequence (Q8R4P5 1-757 G411C): T1 sequence (Q8R4P5 1-757 D569C) with G411C, C569D
Procedure: as §1, §2, §3

In the case of `C[N+](C)(C)CCSS(C)(=O)=O.[Br-]` [MTSET, 2-(trimethylammonium)ethyl methanethiosulfonate, bromide], the “amplitude of the background current after MTSET treatment” value [1] was -25.3123 and -14.3715 and -14.7309 and -35.792 and the “amplitude of the background current after MTSET treatment” value [2] was -17.5539 and -22.5978 and -20.1413 and -23.0553 and -21.6542.

Source: article PMC6853638, “TMC1 is an essential component of a leak channel that modulates tonotopy and excitability of auditory hair cells in mice” (eLife, 2019)
